Experimental data published in ChEMBL document CHEMBL3507680, “University of Dundee, Gates Library screen for HepG2 cell viability”.

Experiment: Human HepG2 cell viability assay in 384 well format
Format: toxicity, cell-based
Parameters: dose 125 nL, time 70.5 hour; concentration not given beside the values
Conditions: HepG2 cells, read-out: Inhibition

| Compound | cytotoxicity at 70.5 h [%] |
| --- | --- |
| O=C(c1cc(Cn2ccc3ccccc32)[nH]n1)N1CCOCC1 | -0.75 |
| FC(F)COc1ccccc1NCc1nnsc1Cl | -10.5 |
| Cc1cc(C)c2c(N3CCN(CCN4CCOCC4)CC3)ncnc2n1 | 16.3 |
| CSCC(C)N(C)C(=O)c1nn(-c2ccc(F)cc2C)cc1O (stereo not given) | -10.1 |
| O=C1O[C@@H]2CN(c3ccc(Cl)cn3)C[C@@H]2N1CCc1ccc(F)cc1 | -8.87 |
| O=C(CCC(F)(F)F)N1CCCC(CO)(CC2CC2)C1 (stereo not given) | -8.1 |
| CC(C)Nc1ncccc1C(=O)NCc1ccnn1C | 6.47 |
| CC(C)c1nc(CNc2nccc(CCC(F)(F)F)n2)cs1 | -8.19 |
| CN(C)c1ncccc1CNC(=O)N1CCCC1c1cccs1 (stereo not given) | 1.79 |
| Cn1cccc1C(=O)N1CCCCC1c1[nH]ncc1S(C)(=O)=O (stereo not given) | -5.18 |
| O=C(NCCn1nc2ccccn2c1=O)c1cccc2[nH]ncc12 | -16.6 |
| O=S(=O)(NCc1ccccc1Cn1cncn1)N1CCCCC1 | -10.7 |
| Cc1ccc(NC(=O)CSCc2cccnc2)nc1 | -1.37 |
| Cc1nc(CN(C)Cc2nc(-c3ccccc3)no2)co1 | -1.63 |
| CCc1cc(C)c(C(=O)N2CCCC2CC(=O)c2cnn(C)c2)o1 (stereo not given) | 6.36 |
| CCOCCNC(=O)Cc1cccc(I)c1 | 0.854 |
| Cn1cnc(S(=O)(=O)N2C[C@H](OCC3CC3)[C@H]3OCCC[C@H]32)c1 | 16.2 |
| Cc1ccnc(NC(=O)c2cnc(C3CCCNC3)cn2)c1 (stereo not given) | -4.33 |
| N#Cc1ccccc1N1CCCN(C(=O)CCc2ccco2)CC1 | -5.97 |
| O=C(O)[C@]12CCCN(CC3CCOC3)C[C@H]1CN(c1ncccn1)C2 (stereo not given in full) | -5.74 |
| CCOC(=O)[C@H]1CNC[C@H]1C(=O)OCC | -2.7 |
| O=C1CC(c2cccs2)c2sc(C(=O)O)c(-c3ccccc3)c2N1 (stereo not given) | -9.97 |
| Cc1ccsc1-c1nc(CN(C)Cc2noc(C(C)C)n2)c(C)o1 | -10.3 |

| Compound | cytotoxicity at 70.5 h [%] |
| --- | --- |
| CCCS(=O)(=O)N[C@H]1CN(c2ncccc2C(N)=O)C[C@@H]1C(C)C | 0.22 |
| CCn1nc2c(cc1=O)CN(CC(=O)Nc1nc(C)c(C)s1)CC2 | -13.9 |
| Cc1ncnc(N2CCCN(c3nc4ccccc4s3)CC2)c1C | 7.7 |
| OC(CN(Cc1ccccc1)Cc1cccnc1)c1ccco1 (stereo not given) | 14.4 |
| Cc1ccc(C2CCCN2S(=O)(=O)N(C)CCc2ccccn2)o1 (stereo not given) | 4.42 |
| CCc1ncc2c(n1)CN(Cc1nc(-c3ccsc3)no1)CC2 | -6.7 |
| O=S(=O)(c1ccc(Cl)s1)N1CCCC(c2ncc[nH]2)C1 (stereo not given) | -1.59 |
| O=C(Nc1ccccc1)c1cc2n(n1)CCCN(C(=O)N1CCCC1)C2 | 22.6 |
| CCOC[C@@H]1CC[C@H]2[C@H](CCN2C(=O)c2ccncc2F)O1 | -1.37 |
| O=C1CCC(C(=O)Nc2ccc(=O)n(Cc3ccc(Cl)c(Cl)c3)c2)N1 (stereo not given) | -16.6 |
| O=C(c1cc2ccccc2[nH]c1=O)N1CCC2(CCCNC2)C1 (stereo not given) | -4.47 |
| COC(=O)CNc1ccc(-c2nc(Cc3ccc(OC)cc3)no2)cn1 | -10.8 |
| O=C(c1ccc(N2CCOCC2)nc1)N1CCCC(n2cccn2)C1 (stereo not given) | -13.9 |
| CCN(C)c1cc(CNC(=O)CNC(=O)CC2CCCCC2)ccn1 | -16.4 |
| Cc1cc(C)n(C2CN(Cc3nc4cc(Cl)ccc4n3C)C2)n1 | 4.28 |
| CC(Cn1cccn1)NC(=O)CCc1nc(C(C)(C)C)no1 (stereo not given) | -2.44 |
| CC(C)(C)c1nnc(CN2CCCC2Cn2cncn2)o1 (stereo not given) | -11.3 |
| CS(=O)(=O)N1CCC2(CC1)COC(COc1ccccn1)C2 (stereo not given) | -12.3 |
| Cn1nc(COc2cccnc2)c2c1CCN(Cc1ccco1)C2 | 4.18 |
| COc1ccc(-c2cc(N)on2)cc1 | 13.8 |
| CCNC(=O)Nc1cccc(F)c1C(=O)NC1CCCC1 | -6.92 |
| CN(Cc1ccccc1)CC1CC2(CO1)CN(c1nncs1)C2 (stereo not given) | -8.78 |
